# According to patent US9182402B2, “Hepsin inhibitors” (Fred Hutchinson Cancer Research Center, priority 2008, dated 2015):
# Read-outs that look alike come from different tables or passages of the source.
# Experiments:
# recombinant human hepsin = recombinant human hepsin (Homo sapiens, UniProt P05981); assay: Hepsin activity assay (chromogenic substrate pyroGlu-Pro-Arg-pNA); type: biochemical
# Method: D. Hepsin, Trypsin and Thrombin Activity Assays.
# Purified recombinant hepsin was preincubated with indicated compounds for 30 minutes at room temperature.
# thrombin = thrombin (Bos taurus (Bovine), UniProt P00735); assay: Thrombin activity assay (chromogenic substrate); type: biochemical; conditions: for IC50: 30 minutes preincubation at room temperature, substrate at Km
# Method: (§1) Titration of the chromogenic substrate pryoGlu-Pro-Arg-pNA was performed for each enzyme and the resulting substrate-velocity data fit with nonlinear regression using GraphPad Prism 4 software (GraphPad, La Jolla, Calif.) to calculate Vmax and Km. […] The reactions were then followed using a kinetic microplate reader and the linear rates of increase in absorbance at 405 nm expressed as percent activity (100%×vi/vo). At least three independent experiments were performed for each enzyme. The IC50 was calculated by fitting the data to a four-parameter non-linear regression using GraphPad Prism 4.
# trypsin = trypsin (Sus scrofa (Pig), UniProt P00761); assay: Trypsin activity assay (chromogenic substrate); conditions: read-out: IC50 trypsin; 30 minutes preincubation at room temperature, substrate at Km
# Method: as §1
# LNCaP cells = assay: Cell cytotoxicity assay (CellTiter-Glo, ATP-luciferase); conditions: 20 μM, 72 hours, compounds replenished daily
# [1] = tested on: MP-1 mouse prostate epithelial cell line; assay: as above; conditions: MP-1, 20 μM, 72 hours, compounds replenished daily
# HepG2 cells = assay: as above; conditions: HepG2, 20 μM, 72 hours, compounds replenished daily
# [2] = biological target: full-length wild-type murine hepsin expressed in HEK 293FT cells (Mus musculus (Mouse), UniProt O35453); assay: Hepsin-dependent pericellular serine proteolytic activity assay; type: cell-based; conditions: for attenuation of hepsin-dependent pericellular proteolytic activity: 50 μM, activity/expression level relative to vehicle; for attenuation of hepsin-dependent pericellular proteolytic activity / pericellular proteolytic activity (in words): overnight incubation; for pericellular proteolytic activity (in words): 20 and 50 μM
# Method: Loading was verified via immunoblot against β-actin.
# G. Pericellular Serine Proteolytic Activity Assay. […] After 3.5 hrs, transfection media was replaced with fresh media containing 20 μM or 50 μM of test compounds or solvent control (0.5% DMSO in media) and cells incubated overnight. Attached cell monolayers were then washed twice with PBS and once with assay buffer (5% CO2 equilibrated phenol-red free DMEM with 1% BSA) to remove residual serum proteases/inhibitors. Cells were then incubated in assay buffer containing 20 or 50 μM compounds for 30 minutes at 37° C. […] Percent inhibition was calculated as residual activity relative to solvent control. Matched samples were used in parallel to determine toxicity of the test compounds to HEK 293FT cells in this system using the CellTiter-Glo™ assay.
# D. Inhibition of Hepsin-Dependent Pericellular Proteolytic Activity. To determine whether the identified compounds were able to inhibit cell-based hepsin activity, an assay was devised to measure hepsin-dependent pericellular serine proteolytic activity (FIG. 5A) (Raynaud et al., 1992 J Cell Physiol 151:378; Bauvois et al., 1990 Eur. J. Immunol. 20:459; Bauvois et al., 1992 Eur. J. Immunol. 22:923; Sameni et al., 2000 Neoplasia 2:496; McGowen et al., 2000 Canc. Res. 60:4771). […] Attached cell monolayers were incubated in assay buffer with peptide substrate and the reactions were allowed to proceed at 37° C. […] Activity levels were adjusted by altering hepsin expression levels to within the linear range of detection. A positive linear rate of activity was observed only for wild-type hepsin-expressing cells and was abolished in the presence of the broad spectrum serine protease inhibitor PEFAbloc.
# HEK 293FT cells = assay: Toxicity to HEK 293FT cells in the pericellular protease assay system (CellTiter-Glo); type: cell-based; conditions: 50 μM, 24-hour treatment
# Method: The chromogenic serine protease substrate pyroglutamyl-L-prolyl-L-argininne-p-nitroaniline hydrochloride (pyrGlu-Pro-Arg-pNA) was then added to the media. […] (FIG. 5B) Toxicity of the candidate hepsin inhibitor compounds over the course of the pericellular protease assay was evaluated by 24-hour treatment of cells with 20 μM (white bars) or 50 μM (black bars) compounds, relative to vehicle control. […] Puromycin at 5 μg/mL was used as a positive control.
# G. Pericellular Serine Proteolytic Activity Assay. […] After 3.5 hrs, transfection media was replaced with fresh media containing 20 μM or 50 μM of test compounds or solvent control (0.5% DMSO in media) and cells incubated overnight. […] Percent inhibition was calculated as residual activity relative to solvent control. […]
# To determine the potential cytotoxicity of the previously identified hepsin inhibitors in this model system, HEK 293FT cells were incubated under identical conditions with 20 and 50 μM of the compounds and cytotoxicity was determined using the ATP-luciferase coupled assay as described above (FIG. 5B). […] The remaining compounds at 20 and 50 μM final concentration were incubated overnight with hepsin expressing cells and pericellular proteolytic activity was determined as described above (FIG. 6).
# hepsin = hepsin (Mus musculus (Mouse), UniProt O35453); assay: Immunoblot of hepsin expression levels in compound treated HEK 293FT cells; conditions: 20 and 50 μM, 24 hours
# Method: The membrane was blocked overnight in TBST buffer containing: 5% non-fat milk, 2% normal goat serum in 50 mM Tris-HCl, pH 8.0, 100 mM NaCl, 0.1% Tween-20. The membrane was then incubated in 3% BSA in TBST with polyclonal anti-hepsin antibody (1:1000) for two hours at room temperature, washed 3×5 minutes with TBST and incubated for one hour in 0.1% BSA in TBST containing goat-anti-rabbit-HRP secondary antibody (1:2000), washed 3×5 minutes in TBST and developed with ECL (Pierce Chemicals, Rockford, Ill.). […] Expression levels were quantified by densitometry using ImageQuantTL™ (GE Healthcare Life Sciences, Piscataway, N.J.).
# As treatment with chemical compounds may alter hepsin expression level (and thereby impact pericellular proteolytic activity), hepsin levels in drug-treated cells were determined via immunoblotting (FIG. 6B).
# [3] = 30 minutes preincubation at room temperature, substrate at Km
# Chain of recombinant human hepsin (P05981 1-162 limits assumed): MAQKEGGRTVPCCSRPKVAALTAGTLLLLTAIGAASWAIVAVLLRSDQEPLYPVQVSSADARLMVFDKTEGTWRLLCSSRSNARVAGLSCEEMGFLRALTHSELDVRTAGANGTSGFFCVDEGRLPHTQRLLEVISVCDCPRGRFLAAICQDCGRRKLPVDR
# Chain of recombinant human hepsin (P05981 163-417 limits assumed): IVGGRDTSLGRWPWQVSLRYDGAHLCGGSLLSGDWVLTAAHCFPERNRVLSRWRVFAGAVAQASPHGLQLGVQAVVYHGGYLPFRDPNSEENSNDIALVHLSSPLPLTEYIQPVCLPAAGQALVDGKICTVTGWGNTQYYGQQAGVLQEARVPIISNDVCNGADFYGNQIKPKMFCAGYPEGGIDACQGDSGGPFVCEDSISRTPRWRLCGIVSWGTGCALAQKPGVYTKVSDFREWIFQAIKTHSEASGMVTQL
# Chain of full-length wild-type murine hepsin expressed in HEK 293FT cells (O35453 other isoform, or with tags, fused parts or gaps): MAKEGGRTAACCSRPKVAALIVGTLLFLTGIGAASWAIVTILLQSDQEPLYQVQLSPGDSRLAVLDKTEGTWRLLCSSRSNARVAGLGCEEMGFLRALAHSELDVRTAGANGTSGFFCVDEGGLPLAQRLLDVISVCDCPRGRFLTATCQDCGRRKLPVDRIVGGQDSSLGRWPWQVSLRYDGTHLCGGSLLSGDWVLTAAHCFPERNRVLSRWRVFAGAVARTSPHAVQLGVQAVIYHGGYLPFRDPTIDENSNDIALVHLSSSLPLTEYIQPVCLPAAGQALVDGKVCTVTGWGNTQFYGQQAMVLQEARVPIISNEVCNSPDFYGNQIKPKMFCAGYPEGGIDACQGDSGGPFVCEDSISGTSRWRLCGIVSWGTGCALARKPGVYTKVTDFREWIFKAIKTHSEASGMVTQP
# Chain of trypsin (P00761 9-231): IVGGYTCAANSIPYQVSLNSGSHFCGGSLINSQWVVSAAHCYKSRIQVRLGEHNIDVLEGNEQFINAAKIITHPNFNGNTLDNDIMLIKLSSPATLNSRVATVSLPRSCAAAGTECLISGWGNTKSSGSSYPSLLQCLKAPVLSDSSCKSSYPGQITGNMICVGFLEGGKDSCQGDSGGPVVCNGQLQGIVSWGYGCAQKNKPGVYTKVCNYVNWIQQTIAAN
Compound,IC50 (recombinant human hepsin; [3]),IC50 (thrombin),IC50 (trypsin),cellular toxicity (cell viability) (LNCaP cells),cellular toxicity (cell viability) [1],cellular toxicity (cell viability) (HepG2 cells),"pericellular proteolytic activity in the presence of inhibitor ([2]; wild-type hepsin-expressing cells, 30 minutes incubation)",IC50 (recombinant human hepsin),cytotoxicity to HEK 293FT cells (HEK 293FT cells),attenuation of hepsin-dependent pericellular proteolytic activity [2],pericellular proteolytic activity (in words) [2],hepsin expression levels (hepsin),activation of thrombin activity (thrombin; at 1 μM)
"CC1(C)CC(=O)c2c(oc3c(Br)cc(NS(=O)(=O)c4ccccc4)cc23)C1 [Compound 10, N-(4-bromo-7,7-dimethyl-9-oxo-6,7,8,9-tetrahydrodibenzo[b,d]furan-2-yl)benzenesulfonamide]",930 ± 130 nM,> 20000 nM,7720 ± 1100 nM,limited or no cytotoxicity,limited or no cytotoxicity,limited or no cytotoxicity,–,–,–,–,–,–,–
"Cl.NCCc1ccc(S(=O)(=O)F)cc1 [PEFAbloc, reference compound]",–,–,–,–,–,–,abolished,–,–,–,–,–,–
"COc1cccc(OCCOc2cccc(/C=c3\sc4nc5ccccc5n4c3=O)c2)c1 [Compound 11, 2-{3-[2-(3-methoxyphenoxy)ethoxy]benzylidene}[1,3]thiazolo[3,2-a]benzimidazol-3(2H)-one]",–,–,2000 ± 330 nM,limited or no cytotoxicity,limited or no cytotoxicity,limited or no cytotoxicity,–,1310 ± 440 nM,–,–,–,–,–
"Cc1ccc(OCc2nnc(NC(=O)Nc3cccc(Cl)c3)s2)cc1C [Compound 2, N-(3-chlorophenyl)-N′-{5-[(3,4-dimethylphenoxy)methyl]-1,3,4-thiadiazol-2-yl}urea]",760 ± 260 nM,> 20000 nM,> 20000 nM,substantial toxicity,without affecting,without affecting,–,–,–,–,–,–,–
"O=c1oc(-c2cccc(F)c2)nc2ccc(Cc3ccc4nc(-c5cccc(F)c5)oc(=O)c4c3)cc12 [Compound 7, 6,6′-methylenebis[2-(3-fluorophenyl)-4H-3,1-benzooxazin-4-one]]",2310 ± 530 nM,> 20000 nM,13100 ± 3000 nM,limited or no cytotoxicity,limited or no cytotoxicity,limited or no cytotoxicity,–,–,–,–,–,–,–
"O=C(Nc1ccc(-c2nc3ccccc3o2)c(O)c1)c1ccc(-c2cccc([N+](=O)[O-])c2)o1 [Compound 12, N-[4-(1,3-benzoxazol-2-yl)-3-hydroxyphenyl]-5-(3-nitrophenyl)-2-furamide]",330 ± 70 nM,> 20000 nM,3500 ± 670 nM,substantially toxic,substantially toxic,without affecting,–,–,substantial toxicity,–,–,–,–
O=C1NC(=O)N(c2cccc(Br)c2)C(=O)/C1=C/c1c[nH]c2ccccc12 [Compound 3],1930 ± 390 nM,> 20000 nM,7630 ± 1510 nM,limited or no cytotoxicity,limited or no cytotoxicity,limited or no cytotoxicity,–,–,–,approximately 50%,attenuated pericellular proteolytic activity in a dose dependent manner,without substantially affecting hepsin expression levels,–
"O=C1c2c(O)cccc2Cc2cccc(O)c21 [Compound 15, 1,8-dihydroxyanthracen-9(10H)-one, reference compound]",230 ± 50 nM,> 20000 nM,1260 ± 300 nM,toxic,toxic,toxic,–,–,substantial toxicity,–,–,–,–
"O=[N+]([O-])c1cccc(C2Nc3ccc(Cl)cc3C3C=CCC32)c1 (centres unmarked) [Compound 6, 8-chloro-4-(3-nitrophenyl)-3a,4,5,9b-tetrahydro-3H-cyclopenta[c]quinoline]",980 ± 200 nM,> 20000 nM,10200 ± 1500 nM,limited or no cytotoxicity,limited or no cytotoxicity,limited or no cytotoxicity,–,–,–,–,–,–,–
"Cc1csc(-c2cc3ccc(OCc4c(F)c(F)c(F)c(F)c4F)cc3oc2=O)n1 [Compound 9, 3-(4-methyl-1,3-thiazol-2-yl)-7-[(pentafluorobenzyl)oxy]-2H-chromen-2-one]",980 ± 120 nM,> 20000 nM,20900 ± 7500 nM,limited or no cytotoxicity,limited or no cytotoxicity,limited or no cytotoxicity,–,–,–,–,–,–,–
"O=C1C=CC(=O)N1c1cccc([N+](=O)[O-])c1 [Compound 1, 1-(3-nitrophenyl)-1H-pyrrole-2,5-dione]",280 ± 70 nM,–,3880 ± 850 nM,substantial toxicity,without affecting,without affecting,–,–,–,–,–,–,approximately 3 fold
"O=C(Nc1ccc(Cl)c(Cl)c1)Nc1nnc(-c2ccc(Br)cc2)s1 [Compound 8, N-[5-(4-bromophenyl)-1,3,4-thiadiazol-2-yl]-N′-(3,4-dichlorophenyl)urea]",720 ± 200 nM,> 20000 nM,1710 ± 210 nM,limited or no cytotoxicity,limited or no cytotoxicity,limited or no cytotoxicity,–,–,–,–,–,–,–
"O=[N+]([O-])c1ccc(C2Nc3c(cccc3C(F)(F)F)C3C=CCC32)cc1 (centres unmarked) [Compound 5, 4-(4-nitrophenyl)-6-(trifluoromethyl)-3a,4,5,9b-tetrahydro-3H-cyclopenta[c]quinoline]",570 ± 190 nM,> 20000 nM,31200 ± 2000 nM,limited or no cytotoxicity,limited or no cytotoxicity,limited or no cytotoxicity,–,–,–,approximately 60%,attenuated pericellular proteolytic activity in a dose dependent manner,without substantially affecting hepsin expression levels,–
"Oc1nc2cc(Cl)c(Cl)cc2nc1O [Compound 16, 2,3-dihydroxy-6,7-dichloroquinoxaline]",750 ± 90 nM,> 20000 nM,2420 ± 290 nM,limited or no cytotoxicity,limited or no cytotoxicity,limited or no cytotoxicity,–,–,–,–,–,–,–
"Cc1cccc(C2Nc3cccc4cccc(c34)N2)c1 [Compound 4, 2-(3-methylphenyl)-2,3-dihydro-1H-perimidine]",350 ± 120 nM,> 20000 nM,19600 ± 2700 nM,limited or no cytotoxicity,limited or no cytotoxicity,limited or no cytotoxicity,–,–,–,approximately 60%,attenuated pericellular proteolytic activity in a dose dependent manner,without substantially affecting hepsin expression levels,–
